What all share (format): in vivo
Experiment [1] relates to Myzus persicae. Nature of the experiment: Example 48: aubergine plants treated against Myzus persicae. The note with it: on leaves, rate (g of a.i./ha): pymethrozine 0.0125, I-4 0.024. As to the method: In three replications, four aubergine plants (age about 7 months) of the cultivar “Hayabusa” are treated against Myzus persicae. The application is carried out using a motor-operated knapsack sprayer. Here, the active compound Example (I-4) (240 SC), in a tank mix with 0.1% a.i. of rapeseed oil methyl ester (500 EW), and the commercial standard pymethrozine (25 WP) are tested at the stated application rates. The application rate is 3000 l of water/ha.
Evaluation is carried out 7, 14, 21 and 29 days after the treatment by rating the kill of the animals on the leaves.

Experiment [2] has as its system Bemisia argentifolii. Nature of the experiment: Example 36: aubergine plants (Ryoma) treated against Bemisia argentifolii. The following applies: nymphs on leaves, % a.i.: pymetrozine 0.0125, I-4 0.072, I-8 0.06; for Kill (%) 13 d: 13 d after treatment; for Kill (%) 20 d: 20 d after treatment; for Kill (%) 27 d: 27 d after treatment. As to the method: In three replications, in each case four aubergine plants of the cultivar “Ryoma” are treated against Bemisia argentifolii. The application is carried out using a motor-operated knapsack sprayer. Here, the active compounds Example (I-4) and Example (I-8), in a tank mix with 0.2% a.i. of rapeseed oil methyl ester (500 EW), and the commercial standard pymetrozine (25 WP) are tested at the stated application rates. The application rate is 3200 l of water/ha.
Evaluation is carried out 13, 20 and 27 days after the treatment by rating the kill of the nymphs on the leaves.

Experiment [3] concerns Psylla piri. Nature of the experiment: Example 6: pear trees treated against Psylla piri. The following applies: larvae on shoots, % a.i.: amitraz 0.05, I-9, I-2, I-1 0.096; for Kill (%) 3 d: 3 d after last of two treatments; for Kill (%) 10 d: 10 d after last of two treatments; for Kill (%) 20 d: 20 d after last of two treatments. The method, then: In three replications, in each case 4 about 4-year-old pear trees of the cultivar “Williams Christ” are treated against Psylla piri. Two applications are carried out at an interval of 11 days using a motor-operated barrow-mounted sprayer. Here, the active compounds Example (I-9) (240 SC), Example (I-2) (240 SC) and Example (I-1) (240 SC) are tested against the commercial standard Amitraz (200 EC) at the stated amounts. The application rate is 2000 l of water/ha.
Evaluation is carried out 3, 10 and 20 days after the last treatment by rating the kill of the larvae in percent on the shoots.

For experiment [4], the system named is Psylla piri. Put plainly: Example 5: pear trees treated against Psylla piri. The following applies: nymphs on shoots, g a.i./ha/m crown height: amitraz 266, I-4 72. As to the method:
In three replications, pear trees of the cultivar “Williams Christ” are treated against Psylla piri. Application is shortly before the eggs hatch. The application is carried out using a barrow-mounted sprayer operated with pressurized air. Here, the active compound Example (I-4) (240 SC) is tested in a tank mix with 0.1% a.i. rapeseed oil methyl ester (500 EW) at the stated amount against the standard amitraz (200 EC) at the stated amount. The application rate is 1000 l of water/ha.
Evaluation is carried out 7, 14 and 21 days after the treatment by rating the kill of the nymphs on the shoots.

Experiment [5] has as its system Pemphigus bursarius. Nature of the experiment: Example 3: chrysanthemums, lettuce root aphid. The note with it: on roots, drip irrigation 0.1%. The method, then: In three replications, in each case 10 about 5-month-old chrysanthemums (Camilla) in 2 l-vessels are treated against the lettuce root aphid Pemphigus bursarius. Here, the active compound Example (I-4) (240 SC) is applied with a knapsack sprayer operated by pressurized air at the beginning of the infestation at the stated application rates to the above-ground parts of the plants. The soil is covered with a film. The application rate is 600 l of water/ha. 0.1% a.i. of rapeseed oil methyl ester (500 EW) is added to the spray liquor. Omethoate as drip irrigation in a concentration of 0.1% is used for comparison. The application is carried out two days later.
The kill in percent is determined on the roots. […]

Experiment [6] concerns Saissetia oleae. Nature of the experiment: Example 13: orange trees treated against Saissetia oleae. The following applies: nymphs on leaves, g a.i./ha/m crown height: buprofezin 500, I-4 72, I-8 30. As to the method: In three replications, in each case two about 8-year-old orange trees are treated against Saissetia oleae. Here, the active compounds Example (I-4) (240 SC) and Example (I-8) (250 SC) in a tank mix with 0.2% a.i. of rapeseed oil methyl ester (500 EW) at the stated application rate are tested against the commercial standard buprofezin in a tank mix with 0.4% a.i. of Oliocin (800 EW) at the stated application rate. The application is carried out using a motor-operated knapsack sprayer. The application rate is 3000 l of water/ha. Two treatments are carried out, at an interval of 29 days.
Evaluation is carried out 24 and 44 days after the last treatment by rating the kill of the nymphs on the leaves.

The subject of experiment [7] is Nasonovia ribisnigri. Nature of the experiment: Example 42: head lettuce treated against Nasonovia ribisnigri. The note with it: on plants, g a.i./ha: Pirimor 150, I-4 48, I-8 42. As to the method: In four replications, plots of a size of 5 m^2 with head lettuce are, two weeks after transplantation, treated against Nasonovia ribisnigri. The application is carried out using a knapsack sprayer operated with pressurized air. Here, the active compounds Example (I-4) (240 SC) and Example (I-8) (240 SC) are, in a tank mix with 0.2% a.i. of rapeseed oil methyl ester (500 EW), tested against the commercial standard Pirimor, at the stated application rates. The application rate is 500 l of water/ha.
Evaluation is carried out 7, 14 and 26 days after the treatment by rating the kill of the animals on the plants.

Experiment [8] concerns Bemisia argentifolii. Put plainly: Example 37: cantaloupe melons treated against Bemisia argentifolii. The note with it: nymphs on leaves, g a.i./ha: endosulfan 1120, I-4 48. As to the method: In four replications, plots of a size of about 39 m^2 with cantaloupe melons of the cultivar “Western Shipper” are treated against Bemisia argentifolii. The application is carried out using a knapsack sprayer operated with pressurized air. Here, the active compound Example (I-4) (240 SC), in a tank mix with 0.2 a.i. of rapeseed oil methyl ester (500 EW), and the commercial standard endosulfan (360 EC) are tested at the stated application rates. Two applications are carried out at an interval of 16 days. The application rate is 187 l of water/ha.
Evaluation is carried out 5, 13, 21 and 29 days after the first treatment by rating the kill of the animals (nymphs) on the leaves.

Experiment [9] concerns Macrosiphum euphorbiae. Put plainly: Example 46: head lettuce treated against Macrosiphum euphorbiae. The note with it: nymphs on plants, g a.i./ha: endosulfan 1120, I-4 48. As to the method:
(§1) In four replications, plots of a size of about 33 m^2 with head lettuce of the cultivar “PIC 714” are treated against Aulacorthum solani, Macrosiphum euphorbiae and Myzus persicae. The application is carried out using a tractor sprayer. Here, the active compound Example (I-4) (240 SC), in a tank mix with 0.2% a.i. of rapeseed oil methyl ester (500 EW), is tested against the commercial standard endosulfan (360 EC), at the stated application rates. The application rate is 187 l of water/ha. Two treatments are carried out, at an interval of 22 days.
(§2) Evaluation is carried out 8, 22, 30 and 40 days after the first treatment by rating the kill of the nymphs on the plants.

The test system of experiment [10] is Aulacorthum solani. Nature of the experiment: Example 46: head lettuce treated against Aulacorthum solani. The following applies: nymphs on plants, g a.i./ha: endosulfan 1120, I-4 48. As to the method: as §1, §2
The test system of experiment [11] is Myzus persicae. Put plainly: Example 46: head lettuce treated against Myzus persicae. The following applies: nymphs on plants, g a.i./ha: endosulfan 1120, I-4 48. As to the method:
as §1, §2

For experiment [12], the system named is Paratrioza cockerelli. Put plainly: Example 7: bell peppers treated against Paratrioza cockerelli. The note with it: nymphs on leaves, g a.i./ha: imidacloprid 52.6, I-4 72, dimethoate 561. As to the method:
In four replications, plots of a size of about 7 m^2 with bell peppers of the cultivar “Jupiter” are treated against Paratrioza cockerelli. The application is carried out with a knapsack sprayer operated with pressurized air. Here, the active compound Example (I-4) (240 SC) is applied in a tank mix with 0.2% a.i. of rapeseed oil methyl ester (500 EW) and the commercial standards imidacloprid 192 SC and dimethoate (480 EC) are applied in a tank mix with 0.125% Induce at the stated application rates. The application is carried out with an application rate of 467 l of water/ha.
Evaluation is carried out 7 and 15 days after the treatment by rating the kill of the animals (nymphs) on the leaves.

Setting [13] is: 8 d after first of two treatments.
Setting [14] is: 22 d after first of two treatments.
The mark [15] stands for this setting: 30 d after first of two treatments.
[16] abbreviates: 40 d after first of two treatments.

With `CC1=NNC(=O)N(/N=C/c2cccnc2)C1` [pymetrozine, reference compound], in experiment [1] (7 d after treatment), the “Kill (%) 7 d” value turned out to be 99.9%. Moreover, the “Kill (%) 14 d” value in experiment [1] (14 d after treatment) was 99%. The “Kill (%) 21 d” value in experiment [1] (21 d after treatment) is reported as 95%. Besides, the “Kill (%) 29 d” value in [1] (29 d after treatment) came out at 73%. Besides, in experiment [2], the “Kill (%) 13 d” value is recorded as 79%, the “Kill (%) 20 d” value is listed as 74% and the “Kill (%) 27 d” value came to 75%.
For `COC1CCC2(CC1)NC(=O)C(c1cc(C)ccc1Br)=C2OC(=O)C(C)C` (stereo not shown) [Example (I-1)], in [3], the “Kill (%) 3 d” value is 90.0%, the “Kill (%) 10 d” value is 96.6% and the “Kill (%) 20 d” value was 95.0%.
Consider `Cc1ccc(/N=C/N(C)/C=N/c2ccc(C)cc2C)c(C)c1` [amitraz, reference compound], for which the “Kill (%) 7 d” value in experiment [4] (7 d after treatment) was 100%. For the same compound, in [4] (14 d after treatment), the “Kill (%) 14 d” value came out at 95.2%. Moreover, the “Kill (%) 21 d” value in experiment [4] (21 d after treatment) is 75%. Also, in experiment [3], the “Kill (%) 3 d” value is on record as 54.3%, the “Kill (%) 10 d” value worked out at 56.7% and the “Kill (%) 20 d” value is on record as 21.4%.
Turning to `CNC(=O)CSP(=O)(OC)OC` [omethoate, reference compound], the “Kill (%) 7 d” value in experiment [5] (7 d) is 20 (7 d) %. In experiment [5] (15 d), the “Kill (%) 15 d” value is given as 70.6 (15 d) %.
For the compound `CCOC(=O)OC1=C(c2cc(C)c(Cl)cc2C)C(=O)NC12CCC(OC)CC2` (stereo not shown) [Example (I-8)], the “Kill (%) 24 d” value in experiment [6] (24 d after last of two treatments) is recorded as 66.5%. Besides, the “Kill (%) 44 d” value in [6] (44 d after last of two treatments) was 56.1%. Moreover, the “Kill (%) 7 d” value in experiment [7] (7 d after treatment) amounted to 80.8%. The “Kill (%) 14 d” value in experiment [7] (14 d after treatment) came out at 93.6%. Moreover, in [7] (26 d after treatment), the “Kill (%) 26 d” value was 92.7%. Further, in experiment [2], the “Kill (%) 13 d” value came out at 99.5%, the “Kill (%) 20 d” value came to 99.9% and the “Kill (%) 27 d” value amounted to 97%.
`O=S1OCC2C(CO1)C1(Cl)C(Cl)=C(Cl)C2(Cl)C1(Cl)Cl` (stereo not shown) [endosulfan, reference compound]: the “Kill (%) 5 d” value in [8] (5 d after first of two treatments) turned out to be 0%. Also, the “Kill (%) 13 d” value in experiment [8] (13 d after first of two treatments) is 100%. Moreover, the “Kill (%) 21 d” value in [8] (21 d after first of two treatments) was found to be 80.8%. The “Kill (%) 29 d” value in experiment [8] (29 d after first of two treatments) is on record as 66.7%. Moreover, the “Kill (%) 8 d” value in [9] (setting [13]) is on record as 100%; in [10] (setting [13]), 96%; in experiment [11] (setting [13]), 95%. For the same compound, the “Kill (%) 22 d” value turned out to be 100% in [9] (setting [14]), 88% in experiment [10] (setting [14]) and 61% in [11] (setting [14]). For the same compound, the “Kill (%) 30 d” value in experiment [9] (setting [15]) worked out at 99%; in experiment [10] (setting [15]), 98%; in experiment [11] (setting [15]), 100%. For the same compound, the “Kill (%) 40 d” value in experiment [9] (setting [16]) came to 96%; in [10] (setting [16]), 53%.
Consider `CNC(=O)CSP(=S)(OC)OC` [dimethoate], for which the “Kill (%) 7 d” value in experiment [12] (7 d after treatment) turned out to be 63%. Further, the “Kill (%) 15 d” value in experiment [12] (15 d after treatment) is listed as 0%.

For the origin of these results see US20090012152A1, “Use of Tetramic Acid Derivatives for Controlling Insects from the Genus of the Plane Lice (Sternorrhyncha)” (Bayer CropScience Aktiengesellschaft, priority 2005, published 2009).
